Experimental data published in PubChem BioAssay (NCI).
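Grown in 96-well plates, cells were treated for 48 hours with each compound at five concentrations. Insufficient inhibition: endpoint recorded as highest concentration tested. TGI: total growth inhibition.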

Columns and labels:
Test in all cases: NCI tumour cell line growth inhibition, 48 h
RPMI-8226 leukemia = system: RPMI-8226 leukemia
A549 NSCLC = system: A549 NSCLC
ACHN renal = system: ACHN renal
MALME-3M melanoma = system: MALME-3M melanoma
MDA-N = system: MDA-N
U251 CNS = system: U251 CNS
HOP-62 NSCLC = system: HOP-62 NSCLC
SW-620 colon = system: SW-620 colon
UO-31 renal = system: UO-31 renal
T-47D breast = system: T-47D breast
NCI/ADR-RES ovarian = system: NCI/ADR-RES ovarian
NCI-H460 lung = system: NCI-H460 lung
M14 melanoma = system: M14 melanoma
OVCAR-8 ovarian = system: OVCAR-8 ovarian
OVCAR-3 ovarian = system: OVCAR-3 ovarian
A498 renal = system: A498 renal
K-562 leukemia = system: K-562 leukemia
HT29 colon = system: HT29 colon
HL-60(TB) leukemia = system: HL-60(TB) leukemia
COLO 205 colon = system: COLO 205 colon
SF-539 CNS = system: SF-539 CNS
UACC-257 melanoma = system: UACC-257 melanoma
MDA-MB-435 = system: MDA-MB-435
OVCAR-5 ovarian = system: OVCAR-5 ovarian
CCRF-CEM leukemia = system: CCRF-CEM leukemia
MOLT-4 leukemia = system: MOLT-4 leukemia
HS 578T breast = system: HS 578T breast
786-0 renal = system: 786-0 renal
OVCAR-4 ovarian = system: OVCAR-4 ovarian
MDA-MB-231 breast = system: MDA-MB-231 breast
SK-MEL-28 melanoma = system: SK-MEL-28 melanoma
IGROV1 ovarian = system: IGROV1 ovarian
TK-10 renal = system: TK-10 renal
DU-145 prostate = system: DU-145 prostate
SR leukemia = system: SR leukemia
SF-295 CNS = system: SF-295 CNS
SF-268 CNS = system: SF-268 CNS
SK-MEL-2 melanoma = system: SK-MEL-2 melanoma
MCF7 breast = system: MCF7 breast
NCI-H23 lung = system: NCI-H23 lung
SK-MEL-5 melanoma = system: SK-MEL-5 melanoma
RXF 393 renal = system: RXF 393 renal
SNB-19 CNS = system: SNB-19 CNS
NCI-H522 lung = system: NCI-H522 lung
HOP-92 NSCLC = system: HOP-92 NSCLC
SK-OV-3 ovarian = system: SK-OV-3 ovarian
HCC-2998 colon = system: HCC-2998 colon
HCT-116 colon = system: HCT-116 colon
BT-549 breast = system: BT-549 breast
EKVX NSCLC = system: EKVX NSCLC
PC-3 prostate = system: PC-3 prostate
CAKI-1 renal = system: CAKI-1 renal
SN12C renal = system: SN12C renal
SNB-75 CNS = system: SNB-75 CNS
HCT-15 colon = system: HCT-15 colon
UACC-62 melanoma = system: UACC-62 melanoma
NCI-H226 lung = system: NCI-H226 lung
KM12 colon = system: KM12 colon
LOX IMVI melanoma = system: LOX IMVI melanoma

Clc1c2ncccc2cc2n[nH]nc12
TGI (RPMI-8226 leukemia): > 100 µM
TGI (A549 NSCLC): > 100 µM
TGI (ACHN renal): > 100 µM
TGI (MALME-3M melanoma): > 100 µM
TGI (MDA-N): > 100 µM
TGI (U251 CNS): > 100 µM
TGI (HOP-62 NSCLC): > 100 µM
TGI (SW-620 colon): > 100 µM
TGI (UO-31 renal): > 100 µM
TGI (T-47D breast): > 100 µM
TGI (NCI/ADR-RES ovarian): > 100 µM
TGI (NCI-H460 lung): > 100 µM
TGI (M14 melanoma): > 100 µM
TGI (OVCAR-8 ovarian): > 100 µM
TGI (OVCAR-3 ovarian): > 100 µM
TGI (A498 renal): > 100 µM
TGI (K-562 leukemia): > 100 µM
TGI (HT29 colon): > 100 µM
TGI (HL-60(TB) leukemia): > 100 µM
TGI (COLO 205 colon): > 100 µM
TGI (SF-539 CNS): > 100 µM
TGI (UACC-257 melanoma): > 100 µM
TGI (MDA-MB-435): > 100 µM
TGI (OVCAR-5 ovarian): > 100 µM
TGI (CCRF-CEM leukemia): > 100 µM
TGI (MOLT-4 leukemia): 77.1 µM
TGI (HS 578T breast): > 100 µM
TGI (786-0 renal): > 100 µM
TGI (OVCAR-4 ovarian): > 100 µM
TGI (MDA-MB-231 breast): > 100 µM
TGI (SK-MEL-28 melanoma): > 100 µM
TGI (IGROV1 ovarian): > 100 µM
TGI (TK-10 renal): > 100 µM
TGI (DU-145 prostate): > 100 µM
TGI (SR leukemia): > 100 µM
TGI (SF-295 CNS): > 100 µM
TGI (SF-268 CNS): > 100 µM
TGI (SK-MEL-2 melanoma): > 100 µM
TGI (MCF7 breast): > 100 µM
TGI (NCI-H23 lung): > 100 µM
TGI (SK-MEL-5 melanoma): > 100 µM
TGI (RXF 393 renal): > 100 µM
TGI (SNB-19 CNS): > 100 µM
TGI (NCI-H522 lung): > 100 µM
TGI (HOP-92 NSCLC): > 100 µM
TGI (SK-OV-3 ovarian): > 100 µM
TGI (HCC-2998 colon): > 100 µM
TGI (HCT-116 colon): > 100 µM
TGI (BT-549 breast): > 100 µM
TGI (EKVX NSCLC): > 100 µM
TGI (PC-3 prostate): > 100 µM
TGI (CAKI-1 renal): > 100 µM
TGI (SN12C renal): > 100 µM
TGI (SNB-75 CNS): > 100 µM
TGI (HCT-15 colon): > 100 µM
TGI (UACC-62 melanoma): > 100 µM
TGI (NCI-H226 lung): > 100 µM
TGI (KM12 colon): > 100 µM

Nn1c(SCC(=O)O)nc2ccccc2c1=O
TGI (RPMI-8226 leukemia): > 100 µM
TGI (A549 NSCLC): > 100 µM
TGI (ACHN renal): > 100 µM
TGI (MALME-3M melanoma): > 100 µM
TGI (MDA-N): > 100 µM
TGI (U251 CNS): > 100 µM
TGI (SW-620 colon): > 100 µM
TGI (UO-31 renal): > 100 µM
TGI (T-47D breast): > 100 µM
TGI (NCI/ADR-RES ovarian): > 100 µM
TGI (NCI-H460 lung): > 100 µM
TGI (M14 melanoma): > 100 µM
TGI (OVCAR-8 ovarian): > 100 µM
TGI (OVCAR-3 ovarian): > 100 µM
TGI (A498 renal): > 100 µM
TGI (K-562 leukemia): > 100 µM
TGI (HT29 colon): > 100 µM
TGI (COLO 205 colon): > 100 µM
TGI (SF-539 CNS): > 100 µM
TGI (UACC-257 melanoma): > 100 µM
TGI (MDA-MB-435): > 100 µM
TGI (OVCAR-5 ovarian): > 100 µM
TGI (CCRF-CEM leukemia): > 100 µM
TGI (MOLT-4 leukemia): > 100 µM
TGI (HS 578T breast): > 100 µM
TGI (786-0 renal): > 100 µM
TGI (OVCAR-4 ovarian): > 100 µM
TGI (MDA-MB-231 breast): > 100 µM
TGI (SK-MEL-28 melanoma): > 100 µM
TGI (IGROV1 ovarian): > 100 µM
TGI (TK-10 renal): > 100 µM
TGI (DU-145 prostate): > 100 µM
TGI (LOX IMVI melanoma): > 100 µM
TGI (SR leukemia): > 100 µM
TGI (SF-295 CNS): > 100 µM
TGI (SF-268 CNS): > 100 µM
TGI (SK-MEL-2 melanoma): > 100 µM
TGI (MCF7 breast): > 100 µM
TGI (NCI-H23 lung): > 100 µM
TGI (SK-MEL-5 melanoma): > 100 µM
TGI (RXF 393 renal): > 100 µM
TGI (SNB-19 CNS): > 100 µM
TGI (NCI-H522 lung): > 100 µM
TGI (HOP-92 NSCLC): > 100 µM
TGI (HCC-2998 colon): > 100 µM
TGI (HCT-116 colon): > 100 µM
TGI (BT-549 breast): > 100 µM
TGI (EKVX NSCLC): > 100 µM
TGI (PC-3 prostate): > 100 µM
TGI (CAKI-1 renal): > 100 µM
TGI (SN12C renal): > 100 µM
TGI (SNB-75 CNS): > 100 µM
TGI (HCT-15 colon): > 100 µM
TGI (UACC-62 melanoma): > 100 µM
TGI (NCI-H226 lung): > 100 µM
TGI (KM12 colon): > 100 µM

Cc1cc(=O)[nH]c(S(=O)(=O)NC(=S)Nc2ccc(Cl)cc2)n1
TGI (RPMI-8226 leukemia): > 100 µM
TGI (A549 NSCLC): > 100 µM
TGI (ACHN renal): > 100 µM
TGI (MALME-3M melanoma): > 100 µM
TGI (MDA-N): > 100 µM
TGI (U251 CNS): > 100 µM
TGI (HOP-62 NSCLC): > 100 µM
TGI (SW-620 colon): > 100 µM
TGI (UO-31 renal): > 100 µM
TGI (T-47D breast): > 100 µM
TGI (NCI/ADR-RES ovarian): > 100 µM
TGI (NCI-H460 lung): > 100 µM
TGI (M14 melanoma): > 100 µM
TGI (OVCAR-8 ovarian): > 100 µM
TGI (OVCAR-3 ovarian): > 100 µM
TGI (A498 renal): > 100 µM
TGI (HT29 colon): > 100 µM
TGI (HL-60(TB) leukemia): > 100 µM
TGI (COLO 205 colon): > 100 µM
TGI (SF-539 CNS): > 100 µM
TGI (UACC-257 melanoma): > 100 µM
TGI (MDA-MB-435): > 100 µM
TGI (OVCAR-5 ovarian): > 100 µM
TGI (CCRF-CEM leukemia): > 100 µM
TGI (MOLT-4 leukemia): > 100 µM
TGI (HS 578T breast): > 100 µM
TGI (786-0 renal): > 100 µM
TGI (OVCAR-4 ovarian): > 100 µM
TGI (MDA-MB-231 breast): > 100 µM
TGI (SK-MEL-28 melanoma): > 100 µM
TGI (IGROV1 ovarian): > 100 µM
TGI (TK-10 renal): > 100 µM
TGI (DU-145 prostate): > 100 µM
TGI (SR leukemia): > 100 µM
TGI (SF-295 CNS): > 100 µM
TGI (SF-268 CNS): > 100 µM
TGI (SK-MEL-2 melanoma): > 100 µM
TGI (MCF7 breast): > 100 µM
TGI (NCI-H23 lung): > 100 µM
TGI (SK-MEL-5 melanoma): > 100 µM
TGI (RXF 393 renal): > 100 µM
TGI (SNB-19 CNS): > 100 µM
TGI (NCI-H522 lung): 84.6 µM
TGI (HOP-92 NSCLC): > 100 µM
TGI (SK-OV-3 ovarian): > 100 µM
TGI (HCC-2998 colon): > 100 µM
TGI (HCT-116 colon): > 100 µM
TGI (BT-549 breast): > 100 µM
TGI (EKVX NSCLC): > 100 µM
TGI (PC-3 prostate): > 100 µM
TGI (CAKI-1 renal): > 100 µM
TGI (SN12C renal): > 100 µM
TGI (SNB-75 CNS): > 100 µM
TGI (HCT-15 colon): > 100 µM
TGI (UACC-62 melanoma): > 100 µM
TGI (NCI-H226 lung): > 100 µM
TGI (KM12 colon): > 100 µM
